Drawing on patent publication US8017612B2, “Piperazine compound and use thereof as a HCV polymerase inhibitor” (priority 2006, dated 2011), this text covers IC50 for 16 molecules.

Assay [1] concerns the target T1, HCV polymerase (NS5B) type 1a (Hepatitis C virus genotype 1a, UniProt P26664).
T1 construct: made in house; host or cells: Escherichia coli (by the 'similar method' of the 1b enzyme)
Description: Assay of enzyme (HCV polymerase) inhibitory activity, type 1a enzyme. The note with it: HCV polymerase inhibitory activity IC50, 1a, type 1a enzyme. It is filed as biochemical, HCV type 1a (cloned from the blood of patients). A digest of the protocol:
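IC50 values derive from radioactivity of newly synthesized RNA with versus without test compound. The enzyme was C-terminally truncated type 1a NS5B, 1.5 μg/ml, run 60 min at 25° C with 3H-UTP-labelled nucleotides.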

Assay [2] has as its target T2, HCV polymerase (NS5B) type 1b (Hepatitis C virus genotype 1b, UniProt P26663).
T2 construct: a region encoding NS5B (J Virol 1991 March, 65(3), 1105-13, 544 amino acids after deletion of 47 amino acids on the C-terminal); 6xHis (C); made in house; host or cells: Escherichia coli
Put plainly: Assay of enzyme (HCV polymerase) inhibitory activity, type 1b enzyme. In kind it is biochemical, HCV BK strain (type 1b). The settings on record: HCV polymerase inhibitory activity IC50, 1b, type 1b enzyme. A digest of the protocol: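 Polymerase activity was followed as radiolabelled UTP incorporation by E. coli-expressed, His-tagged NS5B of HCV type 1b lacking its last 47 residues. Conditions: 2 μM UTP, 50 μM other NTPs, Mg2+ buffer at pH 7.5, 25 °C for 60 min. Inhibition relative to compound-free reactions gave IC50.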

As a reminder, the IC50 is the concentration at which inhibition is half-maximal. As for `CCN(C)c1ccc(CNC(=O)[C@H]2CN(c3nc4nc(Cl)ncc4s3)CCN2S(=O)(=O)c2ccc(OC(F)(F)F)cc2)cc1` [Example 958, (R)-4-(5-chloro-thiazolo[4,5-d]pyrimidin-2-yl)-1-(4-trifluoromethoxy-benzenesulfonyl)-piperazine-2-carboxylic acid 4-(ethyl-methyl-amino)-benzylamide], the IC50 in assay [1] and in assay [2] was under 100 nM throughout.

For the molecule `O=C(NCc1ccc(OC(F)(F)F)cc1)[C@H]1CN(c2nc3nc(Cl)ncc3s2)CCN1S(=O)(=O)c1ccc(OC(F)(F)C(F)F)cc1` [Example 959, (R)-4-(5-chloro-thiazolo[4,5-d]pyrimidin-2-yl)-1-[4-(1,1,2,2-tetrafluoro-ethoxy)-benzenesulfonyl]-piperazine-2-carboxylic acid 4-trifluoromethoxy-benzylamide], the 50% inhibitory concentration (IC50) in assay [1] and in assay [2] was under 100 nM throughout.

Regarding `O=C(NCc1ccc(OC(F)(F)F)cc1)[C@H]1CN(c2nc3ncncc3s2)CCN1S(=O)(=O)c1ccc(OC(F)(F)C(F)F)cc1` [Example 960, (R)-1-[4-(1,1,2,2-tetrafluoro-ethoxy)-benzenesulfonyl]-4-thiazolo[4,5-d]pyrimidin-2-yl-piperazine-2-carboxylic acid 4-trifluoromethoxy-benzylamide], the IC50 in assay [1] and in assay [2] was under 100 nM throughout.

With `O=C(NCc1ccc(OC(F)(F)F)cc1)[C@H]1CN(c2nc3nc(C(F)(F)F)ncc3s2)CCN1S(=O)(=O)c1ccc(OC(F)(F)F)cc1` [Example 961, (R)-1-(4-trifluoromethoxy-benzenesulfonyl)-4-(5-trifluoromethyl-thiazolo[4,5-d]pyrimidin-2-yl)-piperazine-2-carboxylic acid 4-trifluoromethoxy-benzylamide], the IC50 in assay [1] and in assay [2] was under 100 nM throughout.

Regarding `Nc1nc(Cl)nc2nc(N3CCN(S(=O)(=O)c4ccc(OC(F)(F)F)cc4)[C@@H](C(=O)NCc4ccc(OC(F)(F)F)cc4)C3)sc12` [Example 962, (R)-4-(7-amino-5-chloro-thiazolo[4,5-d]pyrimidin-2-yl)-1-(4-trifluoromethoxy-benzenesulfonyl)-piperazine-2-carboxylic acid 4-trifluoromethoxy-benzylamide], the 50% inhibitory concentration (IC50) in assay [1] and in assay [2] was under 100 nM in each case.

As for `O=C(NCc1ccc(OC(F)(F)F)cc1)[C@H]1CN(c2nc3nc(Cl)[nH]c(=O)c3s2)CCN1S(=O)(=O)c1ccc(OC(F)(F)F)cc1` [Example 963, (R)-4-(5-chloro-7-oxo-6,7-dihydro-thiazolo[4,5-d]pyrimidin-2-yl)-1-(4-trifluoromethoxy-benzenesulfonyl)-piperazine-2-carboxylic acid 4-trifluoromethoxy-benzylamide], the IC50 in assay [1] and in assay [2] was under 100 nM in each case.

With `N#Cc1ncc2sc(N3CCN(S(=O)(=O)c4ccc(OC(F)(F)F)cc4)[C@@H](C(=O)NCc4ccc(OC(F)(F)F)cc4)C3)nc2n1` [Example 964, (R)-4-(5-cyano-thiazolo[4,5-d]pyrimidin-2-yl)-1-(4-trifluoromethoxy-benzenesulfonyl)-piperazine-2-carboxylic acid 4-trifluoromethoxy-benzylamide], the IC50 in assay [1] and in assay [2] was under 100 nM in each case.

In the case of `COc1ccc(CNC(=O)[C@H]2CN(c3nc4nc(Cl)ncc4s3)CCN2S(=O)(=O)c2ccc(OC(F)(F)F)cc2)cc1` [Example 965, (R)-4-(5-chloro-thiazolo[4,5-d]pyrimidin-2-yl)-1-(4-trifluoromethoxy-benzenesulfonyl)-piperazine-2-carboxylic acid 4-methoxy-benzylamide], the half-maximal inhibitory concentration (IC50) in assay [1] and in assay [2] was under 100 nM throughout.

Take `O=C(NCc1ccc(OCF)cc1)[C@H]1CN(c2nc3nc(Cl)ncc3s2)CCN1S(=O)(=O)c1ccc(OC(F)(F)F)cc1` [Example 966, (R)-4-(5-chloro-thiazolo[4,5-d]pyrimidin-2-yl)-1-(4-trifluoromethoxy-benzenesulfonyl)-piperazine-2-carboxylic acid 4-fluoromethoxy-benzylamide]: the IC50 in assay [1] and in assay [2] was under 100 nM each time.

Consider `O=C(NCc1ccc(OCF)cc1)[C@H]1CN(c2nc3ncncc3s2)CCN1S(=O)(=O)c1ccc(OC(F)(F)F)cc1` [Example 967, (R)-4-thiazolo[4,5-d]pyrimidin-2-yl-1-(4-trifluoromethoxy-benzenesulfonyl)-piperazine-2-carboxylic acid 4-fluoromethoxy-benzylamide], for which the IC50 in assay [1] and in assay [2] was under 100 nM in each case.

With `O=C(NCc1ccc(OC(F)F)cc1)[C@H]1CN(c2nc3nc(Cl)ncc3s2)CCN1S(=O)(=O)c1ccc(C(F)(F)F)cc1` [Example 968, (R)-4-(5-chloro-thiazolo[4,5-d]pyrimidin-2-yl)-1-(4-trifluoromethyl-benzenesulfonyl)-piperazine-2-carboxylic acid 4-difluoromethoxy-benzylamide], the IC50 in assay [1] and in assay [2] was under 100 nM throughout.

In the case of `O=C(NCc1ccc(OC(F)F)cc1)[C@H]1CN(c2nc3ncncc3s2)CCN1S(=O)(=O)c1ccc(C(F)(F)F)cc1` [Example 969, (R)-4-thiazolo[4,5-d]pyrimidin-2-yl-1-(4-trifluoromethyl-benzenesulfonyl)-piperazine-2-carboxylic acid 4-difluoromethoxy-benzylamide], the IC50 in assay [1] and in assay [2] was under 100 nM throughout.

For the molecule `Cc1ncc2sc(N3CCN(S(=O)(=O)c4ccc(C(F)(F)F)cc4)[C@@H](C(=O)NCc4ccc(OC(F)F)cc4)C3)nc2n1` [Example 970, (R)-4-(5-methyl-thiazolo[4,5-d]pyrimidin-2-yl)-1-(4-trifluoromethyl-benzenesulfonyl)-piperazine-2-carboxylic acid 4-difluoromethoxy-benzylamide], the 50% inhibitory concentration (IC50) in assay [1] and in assay [2] was under 100 nM throughout.

As to `O=C(NCc1ccc(C2CC2)cc1)[C@H]1CN(c2nc3nc(Cl)ncc3s2)CCN1S(=O)(=O)c1ccc(OC(F)(F)F)cc1` [Example 971, (R)-4-(5-chloro-thiazolo[4,5-d]pyrimidin-2-yl)-1-(4-trifluoromethoxy-benzenesulfonyl)-piperazine-2-carboxylic acid 4-cyclopropyl-benzylamide], the IC50 in assay [1] and in assay [2] was under 100 nM in each case.

For the molecule `O=C(NCc1ccc(OC(F)(F)F)cc1)[C@H]1CN(c2nc3nc(F)ncc3s2)CCN1S(=O)(=O)c1ccc(OC(F)(F)F)cc1` [Example 972, (R)-4-(5-fluoro-thiazolo[4,5-d]pyrimidin-2-yl)-1-(4-trifluoromethoxy-benzenesulfonyl)-piperazine-2-carboxylic acid 4-trifluoromethoxy-benzylamide], the IC50 in assay [1] and in assay [2] was under 100 nM throughout.

Turning to `CC(C)Nc1ncc2sc(N3CCN(S(=O)(=O)c4ccc(OC(F)(F)F)cc4)[C@@H](C(=O)NCc4ccc(OC(F)(F)F)cc4)C3)nc2n1` [Example 973, (R)-4-(5-isopropylamino-thiazolo[4,5-d]pyrimidin-2-yl)-1-(4-trifluoromethoxy-benzenesulfonyl)-piperazine-2-carboxylic acid 4-trifluoromethoxy-benzylamide], the half-maximal inhibitory concentration (IC50) in assay [1] and in assay [2] was under 100 nM in each case.
